Experimental data as given in PubChem BioAssay (NCI).
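Dose response: 5 concentrations. Exposure: 48 h. Format: 96-well plates. Endpoint: linear interpolation; highest concentration if not reached. Here, GI50 denotes the concentration required for 50% inhibition of growth. TGI: total growth inhibition.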

What was measured:
Assay in all cases: DTP human tumour cell line panel, 48 h
ACHN renal = test system: ACHN renal
CAKI-1 renal = test system: CAKI-1 renal
COLO 205 colon = test system: COLO 205 colon
HCT-116 colon = test system: HCT-116 colon
K-562 leukemia = test system: K-562 leukemia
MDA-MB-231 breast = test system: MDA-MB-231 breast
OVCAR-5 ovarian = test system: OVCAR-5 ovarian
SF-539 CNS = test system: SF-539 CNS
SNB-19 CNS = test system: SNB-19 CNS
UACC-62 melanoma = test system: UACC-62 melanoma

SMILES | GI50 (ACHN renal) [nM] | TGI (ACHN renal) [nM] | GI50 (CAKI-1 renal) [nM] | TGI (CAKI-1 renal) [nM] | GI50 (COLO 205 colon) [nM] | TGI (COLO 205 colon) [nM] | GI50 (HCT-116 colon) [nM] | GI50 (K-562 leukemia) [nM] | TGI (K-562 leukemia) [nM] | GI50 (MDA-MB-231 breast) [nM] | TGI (MDA-MB-231 breast) [nM] | GI50 (OVCAR-5 ovarian) [nM] | TGI (OVCAR-5 ovarian) [nM] | GI50 (SF-539 CNS) [nM] | TGI (SF-539 CNS) [nM] | GI50 (SNB-19 CNS) [nM] | TGI (SNB-19 CNS) [nM] | GI50 (UACC-62 melanoma) [nM] | TGI (UACC-62 melanoma) [nM] | TGI (HCT-116 colon) [nM]
NCCCn1c2c(c3ccccc3c1=O)C(=O)c1cc3c(cc1-2)OCO3 | 61 | 295 | 247 | 2270 | 121 | 1980 | 213 | 200 | 4230 | 720 | 4540 | 1540 | 4080 | 242 | 1310 | 159 | 1620 | 63.1 | 620 | –
O=C1c2cccnc2-c2nc(-c3ccccn3)cc3c2c1nc1ccccc13 | 33.3 | 368 | 119 | 781 | 804 | 3350 | 88.5 | 136 | 632 | 185 | 500 | 745 | 3430 | 92.6 | 295 | 1130 | 2650 | 191 | 630 | 332
CCN(CC)c1ccc2[nH]c3c(C(N)=O)cc(=O)c(=O)c=3oc2c1 | 1840 | > 100000 | 1090 | 3440 | 3090 | 11300 | 281 | 1930 | > 100000 | 2900 | > 100000 | 3660 | 33400 | 597 | 14100 | 2680 | 24500 | 1590 | 4750 | 1040
